Drawing on ChEMBL document CHEMBL3612033, “Synthesis of 3,4-diaminobenzoyl derivatives as factor Xa inhibitors” (Eur J Med Chem, 2015), this text covers Ratio and IC50 for 18 molecules.

Experiment [1] addresses T1, Coagulation factor X (Oryctolagus cuniculus) (UniProt O19045).
T1 sequence (whole entry): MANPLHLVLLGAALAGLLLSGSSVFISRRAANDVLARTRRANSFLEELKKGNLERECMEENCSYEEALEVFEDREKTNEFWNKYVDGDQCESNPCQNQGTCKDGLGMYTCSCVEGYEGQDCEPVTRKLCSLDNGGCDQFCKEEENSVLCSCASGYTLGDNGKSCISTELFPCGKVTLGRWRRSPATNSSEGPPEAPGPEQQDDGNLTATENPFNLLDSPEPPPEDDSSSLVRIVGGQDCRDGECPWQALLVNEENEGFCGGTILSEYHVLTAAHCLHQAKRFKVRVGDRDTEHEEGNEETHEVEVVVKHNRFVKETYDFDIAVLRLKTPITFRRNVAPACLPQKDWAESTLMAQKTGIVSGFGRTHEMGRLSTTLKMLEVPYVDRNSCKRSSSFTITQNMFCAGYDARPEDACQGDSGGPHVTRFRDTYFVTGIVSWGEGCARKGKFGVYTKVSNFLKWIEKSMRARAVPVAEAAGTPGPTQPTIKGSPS
Briefly: Inhibition of F10a in rabbit plasma assessed as ratio of compound prothrombin time to vehicle control prothrombin time at 100 nM after 2 mins by automatic coagulation analyser.

Experiment [2] has as its target Coagulation factor X (Homo sapiens, UniProt P00742). Briefly: Inhibition of human F10a using S-2765 as substrate preincubated for 10 mins followed by substrate addition by microplate reader analysis.
Experiment [3] deals with Prothrombin (Bos taurus, UniProt P00735). Briefly: Inhibition of bovine plasma thrombin using S-2238 as substrate.
The target of experiment [4] is Trypsin (Homo sapiens, UniProt P07477+P07478+P35030). Briefly: Inhibition of trypsin (unknown origin) using S-2222 as substrate. Type of experiment: protein assay.

Coagulation factor X, sequence (P00742 41-179 limits assumed): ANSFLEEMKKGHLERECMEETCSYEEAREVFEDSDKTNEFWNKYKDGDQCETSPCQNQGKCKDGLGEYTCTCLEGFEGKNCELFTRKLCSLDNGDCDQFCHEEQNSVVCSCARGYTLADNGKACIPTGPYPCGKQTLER
Coagulation factor X, sequence (P00742 235-488 limits assumed): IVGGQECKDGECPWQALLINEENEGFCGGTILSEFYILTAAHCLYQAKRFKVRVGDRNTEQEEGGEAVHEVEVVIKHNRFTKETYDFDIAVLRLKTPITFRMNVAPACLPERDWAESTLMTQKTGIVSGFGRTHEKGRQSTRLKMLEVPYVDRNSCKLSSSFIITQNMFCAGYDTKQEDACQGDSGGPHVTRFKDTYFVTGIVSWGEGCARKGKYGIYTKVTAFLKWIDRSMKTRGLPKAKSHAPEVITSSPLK

As to `CC(=O)Nc1ccc(C(=O)Nc2cc(C(N)=O)ccc2NC(=O)c2ccc(-n3ccccc3=O)cc2)cc1`, the Ratio in experiment [1] was 1.72. Further, it took 15.6 nM to reach half-maximal inhibition in experiment [2] (IC50).
For `COc1cc(C(=O)Nc2cc(C(N)=O)ccc2NC(=O)c2ccc(-n3ccccc3=O)cc2)cc(OC)c1OC`, in experiment [1], the Ratio came out at 2.06. This molecule returned an IC50 in experiment [2] of 28.6 nM.
For `NC(=O)c1ccc(NC(=O)c2ccc(-n3ccccc3=O)cc2)c(NC(=O)c2ccc(NC=O)cc2)c1`, the Ratio in experiment [1] was 1.54.
Same read-out and setting: under `NC(=O)c1ccc(NC(=O)c2ccc(-n3ccccc3=O)cc2)c(NC(=O)c2ccc(Cl)nc2)c1` stands 1.27; under `NC(=O)c1ccc(NC(=O)c2ccc(-n3ccccc3=O)cc2)c(NC(=O)c2ccc(Cl)s2)c1`, 1.33; under `NC(=O)c1ccc(NC(=O)c2ccc(-n3ccccc3=O)cc2)c(NC(=O)c2ccc3ncoc3c2)c1`, 1.66.
As to `COc1cc(C(=O)Nc2cc(C(=O)O)ccc2NC(=O)c2ccc(-n3ccccc3=O)cc2)cc(OC)c1OC`, the Ratio in experiment [1] is 1.15.
As for `COc1cc(C(=O)Nc2cc(C(N)=O)ccc2NC(=O)c2ccc(N3CCCCC3=O)cc2)cc(OC)c1OC`, the Ratio in experiment [1] came out at 1.16.
Turning to `COc1cc(C(=O)Nc2cc(C(N)=O)ccc2NC(=O)c2ccc(N3CCCC3=O)cc2)cc(OC)c1OC`, the Ratio in experiment [1] came out at 1.27.
Take `COc1ccc(C(=O)Nc2cc(C(N)=O)ccc2NC(=O)c2ccc(-n3ccccc3=O)cc2)cc1OC`: the Ratio in experiment [1] turned out to be 1.94. Besides, the IC50 in experiment [2] was 17.1 nM; in experiment [3] it was greater than 100 µM; in experiment [4], greater than 100 µM.
On to `NC(=O)c1ccc(NC(=O)c2ccc(-n3ccccc3=O)cc2)c(NC(=O)c2ccc(F)cc2)c1`, for which, in experiment [1], the Ratio is 1.27.
In experiment [2], `NC(=O)c1ccc(NC(=O)c2ccc(-n3ccccc3=O)cc2)c(NC(=O)c2ccc(Br)cc2)c1` had a half-inhibitory concentration (IC50) of 25.9 nM.
For `COc1cc(C(=O)Nc2cc(C(N)=O)ccc2NC(=O)c2ccn(-c3ccccc3)c(=O)c2)cc(OC)c1OC`, in experiment [1], the Ratio turned out to be 2.1.
With `COc1cc(C(=O)Nc2ccc(C(N)=O)cc2NC(=O)c2ccc(-n3ccccc3=O)cc2)cc(OC)c1OC`, the Ratio in experiment [1] is 1.07.
In turn, `NC(=O)c1ccc(NC(=O)c2ccc(-n3ccccc3=O)cc2)c(NC(=O)c2ccc(Cl)c(Cl)c2)c1` gave an IC50 in experiment [2] of 6.5 nM.
`COc1ccc(C(=O)Nc2cc(C(N)=O)ccc2NC(=O)c2ccc(-n3ccccc3=O)cc2)cc1`: in experiment [1], the Ratio turned out to be 1.87.
As to `NC(=O)c1ccc(NC(=O)c2ccc(-n3ccccc3=O)cc2)c(NC(=O)c2ccc(Cl)cc2)c1`, the Ratio in experiment [1] was 1.88.
For the molecule `CCOC(=O)c1ccc(NC(=O)c2ccc(-n3ccccc3=O)cc2)c(NC(=O)c2cc(OC)c(OC)c(OC)c2)c1`, in experiment [1], the Ratio is 1.21.
